The values that follow come from patent EP0105872B1, “NOVEL COSMETIC COMPOSITIONS CONTAINING PRENYLAMINE AND A PROCESS FOR THEIR PREPARATION” (CAOLA KOZMETIKAI ES HAZTARTÄSVEGYIPARI VALLALAT, priority 1982, dated 1983).

Series [1] has as its system Gram-negative. As to conditions: cited from earlier work.
Series [2] deals with Yeast. As to conditions: cited from earlier work.
Series [3] concerns Gram-positive. As to conditions: cited from earlier work.
Series [4] relates to Fungi. The conditions noted are these: cited from earlier work.
The subject of series [5] is Streptococcus mutans. The series is described as follows: Minimum inhibition concentration of prenilamine. The class given is cell-based.
A short description of series [6]: Solubility in water. The class given is physicochemical.
Series [7] has as its system Candida albicans. Briefly: Minimum inhibition concentration of prenilamine. The class given is cell-based.
The test system of series [8] is Streptococcus pneumoniae. The series is described as follows: Minimum inhibition concentration of prenilamine. Format: cell-based.
The subject of series [9] is Neisseria pharingis. The series is described as follows: Minimum inhibition concentration of prenilamine. Format: cell-based.
In series [10] the test system is Streptococcus mitis. Briefly: Minimum inhibition concentration of prenilamine. The class given is cell-based.
For series [11], the system named is Corynebacterium diphtherise. The series is described as follows: Minimum inhibition concentration of prenilamine. The class given is cell-based.
The subject of series [12] is Lactobacillus acidophilus. The series is described as follows: Minimum inhibition concentration of prenilamine. The class given is cell-based.
Series [13] concerns Streptococcus haemolyticus. The series is described as follows: Minimum inhibition concentration of prenilamine. Format: cell-based.
In series [14] the test system is Staphylococcus epidermis. The series is described as follows: Minimum inhibition concentration of prenilamine. Format: cell-based.
In series [15] the test system is Listeria monocytogenes. The series is described as follows: Minimum inhibition concentration of prenilamine. Format: cell-based.
The test system of series [16] is Staphylococcus aureus. Briefly: Minimum inhibition concentration of prenilamine. The class given is cell-based.
The subject of series [17] is Haemophilus influensae. The series is described as follows: Minimum inhibition concentration of prenilamine. The class given is cell-based.

SMILES strings stand for the structures. In brackets after ≈: the same amount, converted by molar mass.

Consider `O=C(OCc1ccccc1)c1ccc(O)cc1` [Benzyl paraben], for which the “Minimum Inhibition Concentration” value in series [1] is 200 µg/mL; in [2] it was 100 µg/mL; in [3], 50 µg/mL; in series [4], 75 µg/mL.

As for `Oc1c(Cl)cc(Cl)c(Cl)c1Cc1c(O)c(Cl)cc(Cl)c1Cl` [Hexachlorophene, 3,3',4,4',6,6'-hexachloro-2,2'-methylene-diphenoi], in series [3], the “Minimum Inhibition Concentration” value is on record as 1—10 µg/ml.

As for `COC(=O)c1ccc(O)cc1` [Methyl paraben, p-hydroxybenzoic acid methylester], the “Minimum Inhibition Concentration” value in [1] is 1000 µg/mL; in series [2] it was 1000 µg/mL; in series [3], 800 µg/mL; in series [4], 500 µg/mL.

For the compound `CC(Cc1ccccc1)NCCC(c1ccccc1)c1ccccc1` (stereo not shown) [prenilamine, 3,3-diphenylpropyl-1-methylphenethylamine], the MIC (as a rule, the lowest concentration that inhibits growth of the organism) in series [5] is 5 µg/mL (≈ 15.2 µM); in series [7], 100 µg/mL (≈ 304 µM); in series [8] it was 30 µg/mL (≈ 91.1 µM); in [9], 20 µg/mL (≈ 60.7 µM); in series [10], 5 µg/mL (≈ 15.2 µM); in [11], 10 µg/mL (≈ 30.4 µM). Further, the MIC in [12] worked out at 5 µg/mL (≈ 15.2 µM); in series [13], 5 µg/mL (≈ 15.2 µM); in series [14], 30 µg/mL (≈ 91.1 µM); in series [15], 10 µg/mL (≈ 30.4 µM); in series [16], 30 µg/mL (≈ 91.1 µM); in series [17] it was 60 µg/mL (≈ 182 µM). Further, the Nature of effect result was “bactericide” in [5]; “fungicide” in series [7]; “bactericide” in series [8]; “bactericide” in series [9]; “bactericide” in series [10]; “bactericide” in series [11]. The Nature of effect entry in series [12], in series [13], in [14], in series [15], in series [16] and in [17] was “bactericide” in each case. The solubility in water entry in series [6] is “do not dissolve well in water”.
